ChEMBL document CHEMBL1201862, “PubChem BioAssay data set” (2004)
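Cultured in 96-well plates, cells were exposed to test compound for 48 hours across five concentrations. Abbreviation: GI50, concentration required for 50% inhibition of growth.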 Calls of active or inactive are those of the source. Cut-off read from the data, not from the text of the source: active = GI50 up to about 1.1 µM and inactive = higher.

Key:
Experiment in all cases: NCI-60 cell line screen, 48 h
[1] = tested on: DMS-114
[2] = tested on: RXF 631
[3] = tested on: DMS-273
[4] = tested on: XF498
[5] = tested on: DLD-1
[6] = tested on: LXFL 529
[7] = tested on: SNB-78
[8] = tested on: KM-20L2
[9] = tested on: HOP-18

Measured: GI50

O=C1c2c(nc3ccccc3c2-c2ccccc2)CN1Nc1ccccn1
inactive: [1] 27.5 µM | [2] 15.8 µM | [3] > 89.9 µM | [4] > 100 µM | [5] > 100 µM | [6] 51.9 µM | [7] 11.5 µM

Cc1cc(NCCCCCCCNc2cc(C)nc3cc([N+](=O)[O-])ccc23)c2ccc([N+](=O)[O-])cc2n1
inactive: [1] 1.38 µM | [2] 7.93 µM | [8] 10.8 µM | [3] 4.29 µM | [4] 13.7 µM | [5] 1.82 µM | [9] 17.3 µM | [6] 1.56 µM | [7] 15.9 µM

O=[N+]([O-])c1cc(-c2nnc(S)[nH]2)ccc1O
inactive: [1] 32.4 µM | [2] > 100 µM | [8] > 100 µM | [3] 67.6 µM | [5] > 100 µM | [6] > 100 µM | [7] > 100 µM

COc1cc2nc(-c3cccc(N(C)C)c3)cc(O)c2cc1OC
inactive: [1] 4.73 µM | [8] 2.11 µM | [3] 3.85 µM | [4] 6.32 µM | [5] 4.5 µM | [9] 3.27 µM | [6] 5.22 µM | [7] 5.83 µM

O=C1CCC2(c3ccccc3)OCC([C@@H](O)c3ccccc3)N12 (some centres not stated)
inactive: [1] > 100 µM | [8] > 100 µM | [3] > 100 µM | [4] > 100 µM | [5] > 100 µM | [9] > 100 µM | [7] > 100 µM

Clc1ccc2[nH]c(CCSCCc3nc4ccc(Cl)cc4[nH]3)nc2c1
inactive: [2] 6.89 µM | [3] 13.4 µM | [4] 14.2 µM | [5] 15.4 µM | [9] 22.3 µM | [6] 6.18 µM

CN(C)CCCNc1ccnc2cccc([N+](=O)[O-])c12
inactive: [8] 11.5 µM | [7] 12.9 µM

O=c1cc(-c2ccccc2)[nH]c2cc(Cl)cc(Cl)c12
inactive: [1] 26.4 µM | [3] 12.3 µM | [5] > 100 µM | [9] 20.8 µM | [6] 67.8 µM

Nc1ccc(O)c2c1C(=O)c1c(N)ccc(O)c1C2=O
inactive: [1] > 100 µM | [3] > 100 µM | [4] > 100 µM | [5] > 100 µM | [6] > 100 µM | [7] > 100 µM

Nc1ccc2c(c1)C(=O)N(OS(=O)(=O)c1ccccc1)C2=O
inactive: [1] > 100 µM | [2] > 100 µM | [8] > 100 µM | [3] > 100 µM | [4] > 100 µM | [5] 52.4 µM | [9] > 100 µM | [6] 82 µM | [7] > 100 µM

COc1cc(NCC(C#N)C#N)ccc1/N=N/c1ccc(Cl)cc1
inactive: [1] 18.5 µM | [2] 26.3 µM | [8] 15.2 µM | [3] 21.5 µM | [5] 29.4 µM | [9] 21 µM | [6] 18.3 µM | [7] 36.7 µM

COC(=O)C1CC(C(=O)OC)c2nc3cc(C)c(C)cc3nc21 (configuration not stated)
inactive: [1] > 100 µM | [2] > 100 µM | [8] > 100 µM | [3] > 100 µM | [4] > 100 µM | [5] > 100 µM | [9] 41.7 µM | [6] > 100 µM | [7] > 100 µM

CC(C)C1CNC2N1C(=O)C2(C)OCc1ccccc1 (configuration not stated)
inactive: [1] > 100 µM | [8] > 100 µM | [3] > 100 µM | [5] > 100 µM | [6] > 100 µM

O=C(O)c1ccc([Se][Se]c2ccc(C(=O)O)cc2)cc1
inactive: [1] 20.6 µM | [2] 19 µM | [8] 33 µM | [3] 21.9 µM | [4] 31.7 µM | [5] 34 µM | [9] 29.4 µM | [6] 23 µM | [7] 18.7 µM

O=C(/C=C/c1c(O)ccc2ccccc12)c1cccc(O)c1
inactive: [1] 41.3 µM | [8] > 100 µM | [3] > 63.5 µM | [4] > 100 µM | [5] > 100 µM | [9] 23 µM | [6] > 83.6 µM | [7] > 100 µM

COc1cc2c(cc1OC)C(Cl)C(c1ccc(F)cc1)=C2Cl (configuration not stated)
inactive: [1] 13.2 µM | [8] 14.8 µM | [3] 16.4 µM | [5] 16.9 µM | [9] 15.2 µM | [6] 11.7 µM | [7] 15.4 µM

O=C1C2=C(c3ccccc31)C(c1ccc([N+](=O)[O-])cc1)NC(S)=N2 (configuration not stated)
inactive: [1] 36.8 µM | [2] > 100 µM | [8] > 100 µM | [3] 59.4 µM | [4] 31.5 µM | [5] 69 µM | [6] 41 µM

N#CNc1nc(C(=O)Nc2ccc(Cl)cc2)cc(-c2ccccc2)n1
inactive: [1] > 100 µM | [2] > 100 µM | [8] > 100 µM | [3] > 100 µM | [4] > 100 µM | [5] > 100 µM | [9] > 100 µM | [6] > 100 µM | [7] > 100 µM

CC1CC(=O)C(CC(=O)O)[C@H]1C(C(=O)C(=O)Nc1cc(Cl)ccc1Cl)[N+](=O)[O-] (some centres not stated)
inactive: [1] > 100 µM | [8] > 100 µM | [4] > 100 µM | [5] > 100 µM | [9] > 100 µM

CCOc1ccccc1/N=N/c1ccc2oc(=O)c(C(C)=O)cc2c1
inactive: [1] > 100 µM | [8] > 100 µM | [3] > 100 µM | [4] 30.1 µM | [5] > 100 µM | [6] > 100 µM | [7] 24.4 µM

O=C(O)C1OC(Oc2cc(O)c3c(=O)cc(-c4ccc(O)cc4)oc3c2)C(O)C(O)C1O (configuration not stated)
inactive: [1] > 100 µM | [8] > 100 µM | [3] > 100 µM | [4] 33.6 µM | [5] > 100 µM | [6] > 100 µM | [7] > 100 µM

Cc1cc(Cl)ccc1NC1=NC(=O)C(CC(=O)Nc2ccc(Cl)cc2Cl)S1 (configuration not stated)
inactive: [1] > 100 µM | [2] > 100 µM | [8] > 100 µM | [3] > 100 µM | [4] 38.1 µM | [5] > 100 µM | [6] > 100 µM | [7] > 100 µM

COc1cc(O)c2c(c1O)C(=O)c1cc(C)ncc1C2=O
inactive: [1] 18.9 µM | [8] 17.2 µM | [4] 20.6 µM | [5] 16 µM | [9] > 50 µM | [6] 18.6 µM | [7] 37.8 µM

COC(=O)C1=CCON(c2ccccc2)C1c1ccccc1 (configuration not stated)
inactive: [1] 48.3 µM | [8] 69.8 µM | [3] 56.5 µM | [4] 52 µM | [5] 39.1 µM | [9] > 100 µM | [6] 34.7 µM

Cc1ccc(NC(=O)CC/C(CC(=O)c2ccc(F)cc2)=N\NC(=O)C(=O)NN)cc1C
inactive: [1] > 100 µM | [2] > 100 µM | [8] > 100 µM | [3] > 100 µM | [5] > 100 µM | [9] > 100 µM | [6] > 100 µM | [7] > 100 µM
